Drawing on patent publication US20240391931A1 (Bristol-Myers Squibb Company, priority 2021, published 2024), this text covers IC50 and EC50 for 24 compounds.

The target of one assay is T1, HER2 WT (Homo sapiens, UniProt P04626).
T1 construct: purchased ProQinase, Freiburg, Germany ERBB2 0108-0000-1
Kind of assay: Enzymatic assay HER2 WT (method a). Type of assay: biochemical. The note with it: [HER2 WT]=12.5 nM, [ATP]=25 μM, [Peptide 22]=1 μM. The procedure, abridged:
(§1)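 Initial rates over 0–3600 s, read as substrate-to-product conversion by capillary electrophoresis, were converted to percent inhibition and fitted with a variable-slope curve to give IC50. Conditions: EGFR WT 2 nM with 1 mM ATP; HER2 YVMA 5 nM or HER2 WT 12.5 nM, each with 25 μM ATP. All used 1 μM Peptide 22 in pH 7.5 HEPES/Mn/Mg buffer.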

Another assay addresses T2, EGFR WT (Homo sapiens, UniProt P00533).
T2 construct: purchased Thermo Fisher, Carlsbad, CA ERBB1 PR7295B
Briefly: Enzymatic assay EGFR WT (method c). Format: biochemical. The note with it: [EGFR WT]=2 nM, [ATP]=1 mM, [Peptide 22]=1 μM. Put shortly: as §1

For assay [1], the target named is T3, HER2 wildtype (WT) protein (Homo sapiens, UniProt P04626).
T3 construct: BT474 and N87 cell lines which endogenously overexpress the HER2 wildtype (WT) protein; endogenous in cells; host or cells: BT474, N87
T3 sequence (P04626 23-1255): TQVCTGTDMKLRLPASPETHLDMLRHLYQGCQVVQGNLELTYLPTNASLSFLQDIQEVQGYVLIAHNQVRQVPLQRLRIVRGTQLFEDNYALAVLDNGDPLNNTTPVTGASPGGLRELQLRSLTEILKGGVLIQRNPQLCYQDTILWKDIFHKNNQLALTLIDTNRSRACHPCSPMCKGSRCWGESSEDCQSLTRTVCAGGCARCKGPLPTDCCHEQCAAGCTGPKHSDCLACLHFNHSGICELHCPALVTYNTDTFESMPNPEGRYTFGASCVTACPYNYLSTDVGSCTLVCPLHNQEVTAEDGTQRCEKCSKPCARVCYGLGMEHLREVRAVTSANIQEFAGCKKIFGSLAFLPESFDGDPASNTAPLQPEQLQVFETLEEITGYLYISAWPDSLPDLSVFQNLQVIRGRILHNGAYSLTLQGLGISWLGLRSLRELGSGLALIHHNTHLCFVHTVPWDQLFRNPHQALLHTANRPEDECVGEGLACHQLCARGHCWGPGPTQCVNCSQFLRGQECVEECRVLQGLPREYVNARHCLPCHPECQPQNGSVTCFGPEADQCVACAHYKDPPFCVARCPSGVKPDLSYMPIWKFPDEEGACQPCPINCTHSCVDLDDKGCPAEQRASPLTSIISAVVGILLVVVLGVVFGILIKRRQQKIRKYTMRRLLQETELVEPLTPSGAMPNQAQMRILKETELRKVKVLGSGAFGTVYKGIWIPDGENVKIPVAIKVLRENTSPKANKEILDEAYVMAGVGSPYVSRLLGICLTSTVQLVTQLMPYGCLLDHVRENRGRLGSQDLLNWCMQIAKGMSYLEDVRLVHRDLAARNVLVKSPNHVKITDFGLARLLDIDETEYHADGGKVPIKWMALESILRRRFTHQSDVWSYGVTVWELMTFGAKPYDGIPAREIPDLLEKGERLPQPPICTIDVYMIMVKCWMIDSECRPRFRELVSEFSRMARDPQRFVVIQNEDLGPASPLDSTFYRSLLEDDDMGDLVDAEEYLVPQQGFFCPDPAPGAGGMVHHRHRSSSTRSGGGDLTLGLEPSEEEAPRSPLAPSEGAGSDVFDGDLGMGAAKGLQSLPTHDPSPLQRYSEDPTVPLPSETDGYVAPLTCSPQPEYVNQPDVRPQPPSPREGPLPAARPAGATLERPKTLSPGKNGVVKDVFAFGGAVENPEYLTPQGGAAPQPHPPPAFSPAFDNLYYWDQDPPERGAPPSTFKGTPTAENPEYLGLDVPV
Briefly: HER2 signaling (pHER2 Tyr1248/total HER2 MSD) in BT474 cells. Type of assay: cell-based. The note with it: 1.5 hr compound, 1% FBS. Put shortly: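 BT474, N87 (HER2 WT) and NCI-H1781 (HER2 G776delinsVC) cells were treated for 1.5 h at 37° C in 1% FBS medium with compound at 0.0005–1.1 μM. pHER2 Tyr1248 was measured by MSD on whole-cell lysates and normalized to total HER2 as % DMSO. EC50 came from a variable-slope sigmoidal fit.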

The next assay has as its target HER2YVMA (Homo sapiens, UniProt P04626, INS775YVMA). Briefly: Enzymatic assay HER2YVMA (method b). Type of assay: biochemical. Further details: purchased Viva biotech, Shanghai, China custom purification. The note with it: [HER2YVMA]=5 nM, [ATP]=25 μM, [Peptide 22]=1 μM. The procedure, abridged:
as §1

The structures appear in SMILES notation.

Chain of HER2YVMA (P04626 with tags, fused parts or gaps INS775YVMA): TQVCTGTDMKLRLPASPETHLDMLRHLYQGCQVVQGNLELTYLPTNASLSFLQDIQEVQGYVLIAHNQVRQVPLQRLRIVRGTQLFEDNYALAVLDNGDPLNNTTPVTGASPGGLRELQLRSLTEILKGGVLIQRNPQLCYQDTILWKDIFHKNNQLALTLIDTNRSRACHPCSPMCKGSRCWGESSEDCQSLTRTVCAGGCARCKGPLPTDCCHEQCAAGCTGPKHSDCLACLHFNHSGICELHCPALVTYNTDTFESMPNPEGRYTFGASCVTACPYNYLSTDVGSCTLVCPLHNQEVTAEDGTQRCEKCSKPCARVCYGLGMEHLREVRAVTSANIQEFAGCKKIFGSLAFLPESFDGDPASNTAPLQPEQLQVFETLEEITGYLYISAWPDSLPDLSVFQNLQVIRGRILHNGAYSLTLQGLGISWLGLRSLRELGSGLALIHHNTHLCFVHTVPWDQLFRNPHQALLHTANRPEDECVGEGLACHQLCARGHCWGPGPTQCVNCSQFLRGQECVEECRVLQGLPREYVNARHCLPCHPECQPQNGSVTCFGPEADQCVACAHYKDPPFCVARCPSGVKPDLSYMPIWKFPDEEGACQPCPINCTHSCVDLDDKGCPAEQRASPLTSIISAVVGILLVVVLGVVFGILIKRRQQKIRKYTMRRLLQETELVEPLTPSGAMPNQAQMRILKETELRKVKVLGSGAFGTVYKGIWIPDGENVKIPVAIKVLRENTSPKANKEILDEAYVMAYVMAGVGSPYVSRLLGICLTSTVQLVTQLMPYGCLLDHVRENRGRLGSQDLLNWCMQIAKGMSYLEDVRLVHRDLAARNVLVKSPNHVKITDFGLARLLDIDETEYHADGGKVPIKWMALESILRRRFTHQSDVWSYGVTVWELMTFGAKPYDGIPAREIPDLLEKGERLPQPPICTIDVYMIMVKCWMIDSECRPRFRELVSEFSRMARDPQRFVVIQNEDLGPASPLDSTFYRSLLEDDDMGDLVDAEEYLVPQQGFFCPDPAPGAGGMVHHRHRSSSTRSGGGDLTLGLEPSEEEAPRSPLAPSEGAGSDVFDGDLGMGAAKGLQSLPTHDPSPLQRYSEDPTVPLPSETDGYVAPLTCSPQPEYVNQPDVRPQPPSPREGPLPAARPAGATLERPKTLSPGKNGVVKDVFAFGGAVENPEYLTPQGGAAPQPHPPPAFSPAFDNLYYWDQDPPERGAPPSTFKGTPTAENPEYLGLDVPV
T1 sequence (P04626 23-1255): as the sequence (P04626 23-1255) above
T2 sequence (P00533 25-1210): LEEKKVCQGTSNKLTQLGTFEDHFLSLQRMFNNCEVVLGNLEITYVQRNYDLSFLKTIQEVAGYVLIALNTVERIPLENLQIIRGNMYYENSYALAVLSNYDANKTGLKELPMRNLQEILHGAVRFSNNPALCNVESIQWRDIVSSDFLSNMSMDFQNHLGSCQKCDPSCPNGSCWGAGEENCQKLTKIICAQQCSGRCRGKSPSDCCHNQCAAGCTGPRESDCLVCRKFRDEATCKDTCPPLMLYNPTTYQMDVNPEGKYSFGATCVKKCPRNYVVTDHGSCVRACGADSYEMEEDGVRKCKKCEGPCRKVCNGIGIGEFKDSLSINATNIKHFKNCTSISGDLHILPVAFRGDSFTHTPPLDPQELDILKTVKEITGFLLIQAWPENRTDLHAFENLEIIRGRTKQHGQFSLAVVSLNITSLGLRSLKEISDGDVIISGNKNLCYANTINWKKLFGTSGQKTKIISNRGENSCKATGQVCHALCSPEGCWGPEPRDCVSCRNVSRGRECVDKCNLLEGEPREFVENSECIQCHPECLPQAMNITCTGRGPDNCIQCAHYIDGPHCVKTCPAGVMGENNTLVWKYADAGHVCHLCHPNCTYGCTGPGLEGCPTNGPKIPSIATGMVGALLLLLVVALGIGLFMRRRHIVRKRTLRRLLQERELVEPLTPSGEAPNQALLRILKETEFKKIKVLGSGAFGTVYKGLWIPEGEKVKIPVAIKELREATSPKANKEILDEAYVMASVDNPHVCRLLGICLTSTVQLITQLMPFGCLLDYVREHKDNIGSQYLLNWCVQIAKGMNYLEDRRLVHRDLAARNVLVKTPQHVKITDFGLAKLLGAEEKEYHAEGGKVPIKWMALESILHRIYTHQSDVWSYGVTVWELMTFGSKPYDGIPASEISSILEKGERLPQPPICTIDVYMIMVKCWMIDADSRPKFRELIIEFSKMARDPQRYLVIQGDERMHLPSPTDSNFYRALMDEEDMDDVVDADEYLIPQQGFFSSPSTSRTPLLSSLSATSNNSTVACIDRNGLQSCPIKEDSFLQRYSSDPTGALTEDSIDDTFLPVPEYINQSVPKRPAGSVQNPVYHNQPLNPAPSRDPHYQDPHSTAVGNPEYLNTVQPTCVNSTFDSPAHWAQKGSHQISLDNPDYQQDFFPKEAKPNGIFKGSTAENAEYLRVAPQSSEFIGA

Usually IC50 stands for the midpoint of a concentration-inhibition curve. Read a high IC50 as a need for much substance. Usually EC50 stands for the concentration at which the effect is half-maximal. A lower EC50 goes with higher potency in that assay. For the compound `Cc1ccc(Oc2ccc(Nc3ncnc4sc5c(c34)CCN(C(=O)/C=C/CN3CC(CO)(CO)C3)C5)cc2C)cn1` [Compound 134], the results for the IC50 against HER2 WT, at EGFR WT and against HER2YVMA were under 100 nM, 1000 to 10000 nM and under 100 nM, respectively. In assay [1], this compound came in with an EC50 of 100 to 350 nM.
`Cc1ccc(Oc2ccc(Nc3ncnc4sc5c(c34)CCN(C(=O)/C=C/CN3CC(F)(CO)C3)C5)cc2C)cn1` [Compound 151]: the IC50 was under 100 nM against HER2 WT, over 10000 nM against EGFR WT and under 100 nM against HER2YVMA. The compound further had an EC50 in assay [1] of under 100 nM.
As for `Cc1ccc(Oc2ccc(Nc3ncnc4sc5c(c34)CCN(C(=O)/C=C/CN3CCCC(c4nccs4)C3)C5)cc2C)cn1` (stereo not drawn) [Compound 113], the IC50 on HER2 WT was under 100 nM; against EGFR WT, over 10000 nM; on HER2YVMA it was under 100 nM. The same compound registered an EC50 in assay [1] of under 100 nM.
For the compound `Cc1ccc(Oc2ccc(Nc3ncnc4sc5c(c34)CN(C(=O)C=CCN(C)C)C5C)cc2C)cn1` (single isomer, unassigned) [Compound 170], the IC50 against HER2 WT is 1000 to 10000 nM; against EGFR WT it was over 10000 nM; against HER2YVMA, 1000 to 10000 nM. Further, the EC50 in assay [1] fell in the range of 350 to 1000 nM.
With `Cc1ccc(Oc2ccc(Nc3ncnc4sc5c(c34)CCN(C(=O)/C=C/CN3C[C@H]4C[C@@H]3CC4C#N)C5)cc2C)cn1` (stereo partly drawn) [Compound 120], the half-inhibitory concentration (IC50) was under 100 nM on HER2 WT, over 10000 nM against EGFR WT and under 100 nM on HER2YVMA. The compound also registered an EC50 in assay [1] of under 100 nM.
In the case of `Cc1ccc(Oc2ccc(Nc3ncnc4sc5c(c34)C(C)CN(C(=O)C=CCN3CCOCC3)C5)cc2C)cn1` (single isomer, unassigned) [Compound 177], the figures for the IC50 against HER2 WT, against EGFR WT and against HER2YVMA were under 100 nM, over 10000 nM and under 100 nM, respectively. This compound also came in with an EC50 in assay [1] of under 100 nM.
Regarding `Cc1ccc(Oc2ccc(Nc3ncnc4sc5c(c34)CCN(C(=O)/C=C/CN3CC4CCC(C3)O4)C5)cc2C)cn1` [Compound 13], the IC50 against HER2 WT is under 100 nM; against EGFR WT it was over 10000 nM; against HER2YVMA it was 100 to 1000 nM. The EC50 in assay [1] was under 100 nM.
`Cc1ccc(Oc2ccc(Nc3ncnc4sc5c(c34)CCN(C(=O)/C=C/CN3CC[C@@H](CO)C3)C5)cc2C)cn1` [Compound 132]: the IC50 is under 100 nM on HER2 WT, 1000 to 10000 nM at EGFR WT and under 100 nM against HER2YVMA. The EC50 in assay [1] was under 100 nM.
Regarding `COc1ccc(Oc2ccc(Nc3ncnc4sc5c(c34)CCN(C(=O)/C=C/CN3CC[C@H](CO)C3)C5)cc2C)cn1` [Compound 140], the results for the IC50 at HER2 WT, against EGFR WT and against HER2YVMA were under 100 nM, over 10000 nM and under 100 nM, respectively. In assay [1], this compound came in with an EC50 of under 100 nM.
Turning to `Cc1ccc(Oc2ccc(Nc3ncnc4sc5c(c34)CCN(C(=O)/C=C/CN3CC(C)OC(C)C3C)C5)cc2C)cn1` (stereo not drawn) [Compound 117], the IC50 against HER2 WT was under 100 nM; against EGFR WT, over 10000 nM; against HER2YVMA it was under 100 nM. Further, in assay [1], the EC50 is under 100 nM.
With `Cc1ccc(Oc2ccc(Nc3ncnc4sc5c(c34)CCN(C(=O)/C=C/CN3CCC[C@@H](CO)C3)C5)cc2C)cn1` [Compound 154], the IC50 at HER2 WT is under 100 nM; at EGFR WT, over 10000 nM; against HER2YVMA, under 100 nM. This compound also gave an EC50 in assay [1] of under 100 nM.
Take `Cc1cc(Nc2ncnc3sc4c(c23)CCN(C(=O)/C=C/CN(C)C)C4)ccc1Oc1ccc(N(C)C)nc1` [Compound 158, (E)-4-(dimethylamino)-1-(4-((4-((6-(dimethylamino)pyridin-3-yl)oxy)-3-methylphenyl)amino)-5,8-dihydropyrido[4′,3′:4,5]thieno[2,3-d]pyrimidin-7(6H)-yl)but-2-en-1-one]: the IC50 against HER2 WT was under 100 nM; against EGFR WT, 1000 to 10000 nM; at HER2YVMA, under 100 nM. Also, in assay [1], the EC50 was under 100 nM.
In the case of `Cc1ccc(Oc2ccc(Nc3ncnc4sc5c(c34)C(C)CN(C(=O)/C=C/CN(C)C(C)(C)C)C5)cc2C)cn1` (stereo not drawn) [Compound 175], the IC50 was under 100 nM against HER2 WT, over 10000 nM against EGFR WT and under 100 nM against HER2YVMA. Further, in assay [1], the EC50 was under 100 nM.
In the case of `Cc1ccc(Oc2ccc(Nc3ncnc4sc5c(c34)CCN(C(=O)/C=C/CN3CC4CC4(CO)C3)C5)cc2C)cn1` (stereo not drawn) [Compound 118], the values for the 50% inhibitory concentration (IC50) at HER2 WT, on EGFR WT and on HER2YVMA were under 100 nM, over 10000 nM and under 100 nM, respectively. Also, in assay [1], the EC50 is under 100 nM.
Regarding `Cc1ccc(Oc2ccc(Nc3ncnc4sc5c(c34)CN(C(=O)/C=C/CN(C)C)CC5)cc2C)cn1` [Compound 108, (E)-4-(Dimethylamino)-1-(4-((3-methyl-4-((6-methylpyridin-3-yl)oxy)phenyl)amino)-7,8-dihydropyrido[3′,4′:4,5]thieno[2,3-d]pyrimidin-6(5H)-yl)but-2-en-1-one], the IC50 was under 100 nM at HER2 WT, over 10000 nM against EGFR WT and under 100 nM at HER2YVMA. In assay [1], this compound had an EC50 of under 100 nM.
Take `Cc1ccc(Oc2ccc(Nc3ncnc4sc5c(c34)CCN(C(=O)/C=C/CN(C)C)C5)cc2C)cn1` [Compound 8, (E)-4-(Dimethylamino)-1-(4-((3-methyl-4-((6-methylpyridin-3-yl)oxy)phenyl)amino)-5,6-dihydropyrido[4′,3′:4,5]thieno[2,3-d]pyrimidin-7(8H)-yl)but-2-en-1-one]: the results for the IC50 against HER2 WT, at EGFR WT and at HER2YVMA were under 100 nM, 1000 to 10000 nM and under 100 nM, respectively. In assay [1], this compound displayed an EC50 of under 100 nM.
For `Cc1ccc(Oc2ccc(Nc3ncnc4sc5c(c34)CN(C(=O)/C=C/CN(C)C)C5)cc2Cl)cn1` [Compound 129, (E)-1-(4-((3-Chloro-4-((6-methylpyridin-3-yl)oxy)phenyl)amino)-5H-pyrrolo[3′,4′:4,5]thieno[2,3-d]pyrimidin-6(7H)-yl)-4-(dimethylamino)but-2-en-1-one], the results for the IC50 against HER2 WT, at EGFR WT and against HER2YVMA were under 100 nM, over 10000 nM and under 100 nM, respectively. This compound yielded a concentration giving a half-maximal response (EC50) in assay [1] of under 100 nM.
Take `Cc1ccc(Oc2ccc(Nc3ncnc4sc5c(c34)CCN(C(=O)/C=C/CN3CCO[C@@H](CO)C3)C5)cc2C)cn1` [Compound 144]: the results for the IC50 against HER2 WT, on EGFR WT and against HER2YVMA were under 100 nM, over 10000 nM and 100 to 1000 nM, respectively. In assay [1], the EC50 is under 100 nM.
Regarding `Cc1ccc(Oc2ccc(Nc3ncnc4sc5c(c34)C(C)CN(C(=O)C=CCN(C)C(C)(C)C)C5)cc2C)cn1` (single isomer, unassigned) [Compound 178], the half-inhibitory concentration (IC50) against HER2 WT was 100 to 1000 nM; on EGFR WT it was over 10000 nM; on HER2YVMA, 100 to 1000 nM. The compound further showed an EC50 in assay [1] of under 100 nM.
For the compound `Cc1ccc(Oc2ccc(Nc3ncnc4sc5c(c34)CC(C)N(C(=O)C=CCN(C)C)C5C)cc2C)cn1` (single isomer, unassigned) [Compound 161], the IC50 is under 100 nM against HER2 WT, over 10000 nM at EGFR WT and under 100 nM at HER2YVMA. For the same compound, the EC50 in assay [1] is under 100 nM.
With `C=CC(=O)N1[C@H](C)Cc2c(sc3ncnc(Nc4ccc(Oc5ccc(C)nc5)c(C)c4)c23)[C@H]1C` (racemic) [Compound 166, 1-(6,8-trans-dimethyl-4-((3-methyl-4-((6-methylpyridin-3-yl)oxy)phenyl)amino)-5,8-dihydropyrido[4′,3′:4,5]thieno[2,3-d]pyrimidin-7(6H)-yl)prop-2-en-1-one], the figures for the IC50 against HER2 WT, on EGFR WT and against HER2YVMA were 100 to 1000 nM, over 10000 nM and 100 to 1000 nM, respectively. This compound also had an EC50 in assay [1] of under 100 nM.
`Cc1nc2cc(Oc3ccc(Nc4ncnc5sc6c(c45)CCN(C(=O)/C=C/CN(C)C)C6)cc3C)ccn2n1` [Compound 127, (E)-4-(dimethylamino)-1-(4-((3-methyl-4-((2-methyl-[1,2,4]triazolo[1,5-a]pyridin-7-yl)oxy)phenyl)amino)-5,6-dihydropyrido[4′,3′:4,5]thieno[2,3-d]pyrimidin-7(8H)-yl)but-2-en-1-one]: the figures for the IC50 against HER2 WT, at EGFR WT and against HER2YVMA were 100 to 1000 nM, over 10000 nM and under 100 nM, respectively. This compound returned an EC50 in assay [1] of under 100 nM.
As to `Cc1ccc(Oc2ccc(Nc3ncnc4sc5c(c34)CCN(C(=O)/C=C/CN3CCCC34CCC4)C5)cc2C)cn1` [Compound 115], the IC50 is under 100 nM on HER2 WT, over 10000 nM against EGFR WT and under 100 nM against HER2YVMA. Moreover, the EC50 in assay [1] is under 100 nM.
With `Cc1ccc(Oc2ccc(Nc3ncnc4sc5c(c34)C[C@@H](C)N(C(=O)/C=C/CN(C)C)[C@@H]5C)cc2C)cn1` (racemic) [Compound 165, (E)-1-(6,8-trans-dimethyl-4-((3-methyl-4-((6-methylpyridin-3-yl)oxy)phenyl)amino)-5,8-dihydropyrido[4′,3′:4,5]thieno[2,3-d]pyrimidin-7(6H)-yl)-4-(dimethylamino)but-2-en-1-one], the IC50 on HER2 WT was 100 to 1000 nM; against EGFR WT it was over 10000 nM; on HER2YVMA, 100 to 1000 nM. For the same compound, in assay [1], the EC50 is under 100 nM.
